Assays:
Type in all cases: cell-based
[1] = tested on: Streptococcus agalactiae 13225; test: Second screening, agar dilution MIC
Experimental: (§1) Clinical bacterial isolates from human samples collected in Lille (France) and some collection strains were used. The first screening step on pathogenic bacteria was carried out with crude hydro-alcoholic extracts of different hop parts (Table 1). The second screening was performed using sub-extracts of cones on Gram-positive bacteria, including methicillin-sensitive Staphylococcus aureus (MSSA) and methicillin-resistant Staphylococcus aureus […] (Table 2). These tests were carried out on Petri dishes, Mueller-Hinton Agar (MHA) (Oxoid, UK) was mixed with the plant extract solution in MeOH at 5% (solvent control: 5% MeOH). Final extract concentrations in Petri dishes ranged from 1250 to 4.9 µg/mL. A multi-headed inoculator allowed spotting bacterial strains at 10^5 CFU/mL in cysteinated Ringer (CR) solution (Merck®, France). Minimal Inhibitory Concentrations (MICs) were visually determined after 24 h of incubation at 37 °C.

[2] = tested on: Enterococcus faecalis T34-2; test: Second screening, agar dilution MIC
Experimental: as §1

[3] = tested on: Staphylococcus aureus T47A12; test: Second screening, agar dilution MIC
Experimental: as §1

[4] = tested on: Staphylococcus pettenkoferi T3.3; test: Second screening, agar dilution MIC
Experimental: as §1

[5] = tested on: Streptococcus agalactiae T40A2; test: Second screening, agar dilution MIC
Experimental: as §1

[6] = tested on: Staphylococcus aureus CIP 224; test: Second screening, agar dilution MIC
Experimental: as §1

[7] = tested on: Staphylococcus aureus T25.10; test: Second screening, agar dilution MIC
Experimental: as §1

[8] = tested on: Staphylococcus aureus T26A4; test: Second screening, agar dilution MIC
Experimental: as §1

[9] = tested on: Staphylococcus aureus T6.7; test: Second screening, agar dilution MIC
Experimental: as §1

[10] = tested on: Staphylococcus saprophyticus 08237; test: Second screening, agar dilution MIC
Experimental: as §1

[11] = tested on: Staphylococcus aureus T25.9; test: Second screening, agar dilution MIC
Experimental: as §1

[12] = tested on: Staphylococcus epidermidis 5001; test: Second screening, agar dilution MIC; conditions: Table 2
Experimental: as §1

[13] = tested on: Staphylococcus aureus 8147; test: Second screening, agar dilution MIC; conditions: Table 2
Experimental: as §1

[14] = tested on: Staphylococcus aureus T1.1; test: Second screening, agar dilution MIC
Experimental: as §1

[15] = tested on: Staphylococcus aureus T36B1; test: Second screening, agar dilution MIC
Experimental: as §1

[16] = tested on: Enterococcus faecalis T26-B7; test: Second screening, agar dilution MIC
Experimental: as §1

[17] = tested on: Corynebacterium T25-17; test: Second screening, agar dilution MIC; conditions: Table 2
Experimental: as §1

[18] = tested on: Streptococcus agalactiae T25.7; test: Second screening, agar dilution MIC
Experimental: as §1

[19] = tested on: Streptococcus agalactiae T38.2; test: Second screening, agar dilution MIC
Experimental: as §1

[20] = tested on: Staphylococcus aureus T25.3; test: Second screening, agar dilution MIC
Experimental: as §1

[21] = tested on: Staphylococcus aureus T28.1; test: Second screening, agar dilution MIC
Experimental: as §1

[22] = tested on: Enterococcus faecalis T39-C11; test: Second screening, agar dilution MIC
Experimental: as §1

[23] = tested on: Staphylococcus lugdunensis T26A3; test: Second screening, agar dilution MIC; conditions: Table 2
Experimental: as §1

[24] = tested on: Enterococcus faecalis T37A4; test: Second screening, agar dilution MIC
Experimental: as §1

[25] = tested on: Streptococcus agalactiae 13226; test: Second screening, agar dilution MIC
Experimental: as §1

[26] = tested on: Citrobacter freundii 11042; test: First screening, agar dilution MIC
Experimental: as §1

[27] = tested on: Enterobacter cloacae 11053; test: First screening, agar dilution MIC
Experimental: as §1

[28] = tested on: Staphylococcus warneri T12A12; test: First screening, agar dilution MIC
Experimental: as §1

[29] = tested on: Enterococcus faecalis C159-6; test: First screening, agar dilution MIC
Experimental: as §1

[30] = tested on: Escherichia coli 8138; test: First screening, agar dilution MIC
Experimental: as §1

[31] = tested on: Providencia stuartii 11038; test: First screening, agar dilution MIC
Experimental: as §1

[32] = tested on: Klebsiella pneumoniae 11016; test: First screening, agar dilution MIC
Experimental: as §1

[33] = tested on: Enterobacter cloacae 11050; test: First screening, agar dilution MIC
Experimental: as §1

[34] = tested on: Serratia marcescens 11057; test: First screening, agar dilution MIC
Experimental: as §1

[35] = tested on: Citrobacter freundii 11041; test: First screening, agar dilution MIC
Experimental: as §1

[36] = tested on: Escherichia coli ATCC 25922; test: First screening, agar dilution MIC
Experimental: as §1

[37] = tested on: Serratia marcescens 11056; test: First screening, agar dilution MIC
Experimental: as §1

[38] = tested on: Streptococcus dysgalactiae T46C14; test: First screening, agar dilution MIC
Experimental: as §1

[39] = tested on: Streptococcus agalactiae T25-7; test: First screening, agar dilution MIC
Experimental: as §1

[40] = tested on: Acinetobacter baumannii 9011; test: First screening, agar dilution MIC
Experimental: as §1

[41] = tested on: Stenotrophomonas maltophilia; test: First screening, agar dilution MIC
Experimental: as §1

[42] = tested on: Pseudomonas aeruginosa 8131; test: First screening, agar dilution MIC
Experimental: as §1

[43] = tested on: Enterococcus sp. 8153; test: First screening, agar dilution MIC
Experimental: as §1

[44] = tested on: Pseudomonas aeruginosa ATCC 27583; test: First screening, agar dilution MIC
Experimental: as §1

[45] = tested on: Staphylococcus epidermidis 5001; test: First screening, agar dilution MIC
Experimental: as §1

[46] = tested on: Acinetobacter baumannii 9010; test: First screening, agar dilution MIC
Experimental: as §1

[47] = tested on: Staphylococcus aureus 8147; test: First screening, agar dilution MIC
Experimental: as §1

[48] = tested on: Escherichia coli 8157; test: First screening, agar dilution MIC
Experimental: as §1

[49] = tested on: Staphylococcus epidermidis 10282; test: First screening, agar dilution MIC
Experimental: as §1

[50] = tested on: Streptococcus agalactiae T53C2; test: First screening, agar dilution MIC
Experimental: as §1

[51] = tested on: Corynebacterium T25-17; test: First screening, agar dilution MIC
Experimental: as §1

[52] = tested on: Proteus mirabilis 11060; test: First screening, agar dilution MIC
Experimental: as §1

[53] = tested on: Salmonella sp. 11033; test: First screening, agar dilution MIC
Experimental: as §1

[54] = tested on: Enterobacter cloacae 11051; test: First screening, agar dilution MIC
Experimental: as §1

[55] = tested on: Staphylococcus aureus 8146; test: First screening, agar dilution MIC
Experimental: as §1

[56] = tested on: Klebsiella pneumoniae 11017; test: First screening, agar dilution MIC
Experimental: as §1

[57] = tested on: Staphylococcus lugdunensis T26A3; test: First screening, agar dilution MIC
Experimental: as §1

[58] = tested on: Mycobacterium smegmatis 5003; test: First screening, agar dilution MIC
Experimental: as §1

CNC(C)C1CCC(N)C(OC2C(N)CC(N)C(OC3OCC(C)(O)C(NC)C3O)C2O)O1 (stereo not shown) [GEN, Gentamicin]
Susceptibility to GEN [1]: S (Gentamicin (GEN) S ≤ 4)
Susceptibility to GEN [2]: S (Gentamicin (GEN) S ≤ 4)
Susceptibility to GEN [3]: S (Gentamicin (GEN) S ≤ 4)
Susceptibility to GEN [4]: S (Gentamicin (GEN) S ≤ 4)
Susceptibility to GEN [5]: S (Gentamicin (GEN) S ≤ 4)
Susceptibility to GEN [6]: S (Gentamicin (GEN) S ≤ 4)
Susceptibility to GEN [7]: S (Gentamicin (GEN) S ≤ 4)
Susceptibility to GEN [8]: S (Gentamicin (GEN) S ≤ 4)
Susceptibility to GEN [9]: S (Gentamicin (GEN) S ≤ 4)
Susceptibility to GEN [10]: S (Gentamicin (GEN) S ≤ 4)
Susceptibility to GEN [11]: S (Gentamicin (GEN) S ≤ 4)
Susceptibility to GEN [12]: S (Gentamicin (GEN) S ≤ 4)
Susceptibility to GEN [13]: S (Gentamicin (GEN) S ≤ 4)
Susceptibility to GEN [14]: S (Gentamicin (GEN) S ≤ 4)
Susceptibility to GEN [15]: S (Gentamicin (GEN) S ≤ 4)
Susceptibility to GEN [16]: R (R > 8)
Susceptibility to GEN [17]: S (Gentamicin (GEN) S ≤ 4)
Susceptibility to GEN [18]: I
Susceptibility to GEN [19]: S (Gentamicin (GEN) S ≤ 4)
Susceptibility to GEN [20]: S (Gentamicin (GEN) S ≤ 4)
Susceptibility to GEN [21]: S (Gentamicin (GEN) S ≤ 4)
Susceptibility to GEN [22]: S (Gentamicin (GEN) S ≤ 4)
Susceptibility to GEN [23]: S (Gentamicin (GEN) S ≤ 4)
Susceptibility to GEN [24]: R (R > 8)
Susceptibility to GEN [25]: S (Gentamicin (GEN) S ≤ 4)
Susceptibility to GEN [26]: S (Gentamicin (GEN) S ≤ 4)
Susceptibility to GEN [27]: S (Gentamicin (GEN) S ≤ 4)
Susceptibility to GEN [28]: S (Gentamicin (GEN) S ≤ 4)
Susceptibility to GEN [29]: R (R > 8)
Susceptibility to GEN [30]: S (Gentamicin (GEN) S ≤ 4)
Susceptibility to GEN [31]: S (Gentamicin (GEN) S ≤ 4)
Susceptibility to GEN [32]: S (Gentamicin (GEN) S ≤ 4)
Susceptibility to GEN [33]: S (Gentamicin (GEN) S ≤ 4)
Susceptibility to GEN [34]: R (R > 8)
Susceptibility to GEN [35]: S (Gentamicin (GEN) S ≤ 4)
Susceptibility to GEN [36]: S (Gentamicin (GEN) S ≤ 4)
Susceptibility to GEN [37]: S (Gentamicin (GEN) S ≤ 4)
Susceptibility to GEN [38]: S (Gentamicin (GEN) S ≤ 4)
Susceptibility to GEN [39]: R (R > 8)
Susceptibility to GEN [40]: R (R > 8)
Susceptibility to GEN [41]: S (Gentamicin (GEN) S ≤ 4)
Susceptibility to GEN [42]: S (Gentamicin (GEN) S ≤ 4)
Susceptibility to GEN [43]: R (R > 8)
Susceptibility to GEN [44]: R (R > 8)
Susceptibility to GEN [45]: S (Gentamicin (GEN) S ≤ 4)
Susceptibility to GEN [46]: S (Gentamicin (GEN) S ≤ 4)
Susceptibility to GEN [47]: S (Gentamicin (GEN) S ≤ 4)
Susceptibility to GEN [48]: S (Gentamicin (GEN) S ≤ 4)
Susceptibility to GEN [49]: S (Gentamicin (GEN) S ≤ 4)
Susceptibility to GEN [50]: S (Gentamicin (GEN) S ≤ 4)
Susceptibility to GEN [51]: S (Gentamicin (GEN) S ≤ 4)
Susceptibility to GEN [52]: S (Gentamicin (GEN) S ≤ 4)
Susceptibility to GEN [53]: S (Gentamicin (GEN) S ≤ 4)
Susceptibility to GEN [54]: R (R > 8)
Susceptibility to GEN [55]: S (Gentamicin (GEN) S ≤ 4)
Susceptibility to GEN [56]: S (Gentamicin (GEN) S ≤ 4)
Susceptibility to GEN [57]: S (Gentamicin (GEN) S ≤ 4)
Susceptibility to GEN [58]: S (Gentamicin (GEN) S ≤ 4)

Source: paper PMC6472001, “Phenolic Compounds from Humulus lupulus as Natural Antimicrobial Products: New Weapons in the Fight against Methicillin Resistant Staphylococcus aureus, Leishmania mexicana and Trypanosoma brucei Strains” (Molecules, 2019)
